Measurements published in patent US4774381A, “Herbicide resistant tobacco” (E. I. Du Pont de Nemours and Company, priority 1985, dated 1988).

Key:
[1] = test system: S4/S4 callus; test: Callus growth test with chlorsulfuron and structural analogues; assay type: cell-based, Nicotiana tabacum; details: 10 ppb compound, 2 weeks in the dark
Description: (§1) In these growth tests, petri dishes containing C1 agar medium and 10 ppb of the sulfonamide herbicide chlorsulfuron and Compounds A through E were prepared. A sterile filter paper disc was placed in the center of each plate, and inoculated with 250 mg of callus tissue homozygous for the S4 mutation, or callus tissue derived from the haploid parent H1. The resulting cultures were incubated at 25° in the dark for 2 weeks. At the conclusion of the incubation period, filter discs containing callus cells were removed from culture dishes, placed on a Buchner funnel, and gentle suction applied to remove excess water. The resulting callus mass was then carefully scraped from the filter disc and weighed. Four replicates were included in each experiment.

[2] = test system: H1 (parent) callus; test: as above; assay type: cell-based, Nicotiana tabacum; details: 10 ppb compound, 2 weeks in the dark
Description: as §1

[3] = test system: control plants; details: paraquat 10^-5 M; cited from earlier work
[4] = test system: "resistant" regenerated plants; details: paraquat 10^-5 M; cited from earlier work
[5] = test system: picloram-tolerant tobacco mutants; details: cited from earlier work

For `Cc1cc(C)nc(NC(=O)NS(=O)(=O)c2ccccc2Cl)n1` [A], the “Mean Fresh Weight” value [1] was 5.16 g and the “Mean Fresh Weight” value [2] was 0 g.

In the case of `COc1nc(NC(=O)NS(=O)(=O)c2ccccc2Cl)nc(OC)n1` [E], the “Mean Fresh Weight” value [1] is reported as 4.97 g and the “Mean Fresh Weight” value [2] is reported as 0 g.

In the case of `COc1cc(C)nc(NC(=O)NS(=O)(=O)c2ccccc2Cl)n1` [B], the “Mean Fresh Weight” value [1] is reported as 5.60 g and the “Mean Fresh Weight” value [2] is reported as 0 g.

For `C[n+]1ccc(-c2cc[n+](C)cc2)cc1` [paraquat], the “time for leaves to bleach to white (average)” value [3] is given as 3.5 days and the “time for leaves to bleach to white” value [4] is given as 4 to 7 days.

For `COc1cc(OC)nc(NC(=O)NS(=O)(=O)c2ccccc2Cl)n1` [C], the “Mean Fresh Weight” value [1] was 5.08 g and the “Mean Fresh Weight” value [2] was 0 g.

In the case of `Nc1c(Cl)c(Cl)nc(C(=O)O)c1Cl` [picloram, 4-amino-3,5,6-trichloropicolinic acid], the seed germination ([5]; 100 μM picloram, seeds of tolerant mutants) is given as “germinated” and the plantlet development ([5]; one month's exposure to 50 μM picloram, plantlets homozygous for tolerance mutations) is given as “developed stem callus tissue and degenerated”.

With `Cc1nc(C)nc(NC(=O)NS(=O)(=O)c2ccccc2Cl)n1` [D] the “Mean Fresh Weight” value [1] was 4.53 g and the “Mean Fresh Weight” value [2] was 0 g.
